Results published in the NIST ThermoML archive (doi:10.1016/j.fluid.2013.11.031).
Numbers after ± are expanded uncertainties.

Conditions: Liquid, Vibrating tube method

CCCO [propan-1-ol]
mass density [kg/m3]
Conditions	293.15 K	313.15 K	333.15 K	353.15 K
100 kPa	803.8 ± 0.8	787.1 ± 0.8	769.9 ± 0.8	752 ± 0.8
10000 kPa	811.3 ± 0.8	795.5 ± 0.8	780 ± 0.8	762.5 ± 0.8
20000 kPa	818.1 ± 0.8	803 ± 0.8	788.3 ± 0.8	771.8 ± 0.8
30000 kPa	824.4 ± 0.9	810 ± 0.9	795.7 ± 0.9	780.2 ± 0.9
40000 kPa	830 ± 0.9	816.4 ± 0.9	802.5 ± 0.9	787.9 ± 0.9
50000 kPa	835.6 ± 0.9	822.3 ± 0.9	809 ± 0.9	795 ± 0.9
60000 kPa	841 ± 0.9	827.9 ± 0.9	815 ± 1	801.4 ± 1
70000 kPa	845.9 ± 1	833.2 ± 1	820.6 ± 1	807.7 ± 1
80000 kPa	850.7 ± 1	838.3 ± 1	826.2 ± 1	813.4 ± 1
90000 kPa	855.2 ± 1	843 ± 1	831.2 ± 1	818.7 ± 1.1
100000 kPa	859.6 ± 1	847.9 ± 1.1	836.3 ± 1.1	823.8 ± 1.1
110000 kPa	863.7 ± 1.1	852.3 ± 1.1	840.9 ± 1.1	828.8 ± 1.1
120000 kPa	867.8 ± 1.1	856.6 ± 1.1	845.3 ± 1.1	833.5 ± 1.2
130000 kPa	871.6 ± 1.1	860.7 ± 1.1	849.6 ± 1.2	837.9 ± 1.2
140000 kPa	875.3 ± 1.1	864.6 ± 1.1	853.6 ± 1.2	842.1 ± 1.2
